According to patent US8044198B2, “Sirtuin modulating compounds” (Sirtris Pharmaceuticals, Inc., priority 2005, dated 2011):
Read-outs that look alike come from different tables or passages of the source.

Columns and labels:
[1] = target: T1, SIRT1 (Homo sapiens, UniProt Q96EB6); test: SIRT1 mass spectrometry (MS) based deacetylation assay; assay type: biochemical; settings: for FOLD ACT. MS: fold activation of SIRT1 as determined by MS
T1 sequence (Q96EB6 1-747): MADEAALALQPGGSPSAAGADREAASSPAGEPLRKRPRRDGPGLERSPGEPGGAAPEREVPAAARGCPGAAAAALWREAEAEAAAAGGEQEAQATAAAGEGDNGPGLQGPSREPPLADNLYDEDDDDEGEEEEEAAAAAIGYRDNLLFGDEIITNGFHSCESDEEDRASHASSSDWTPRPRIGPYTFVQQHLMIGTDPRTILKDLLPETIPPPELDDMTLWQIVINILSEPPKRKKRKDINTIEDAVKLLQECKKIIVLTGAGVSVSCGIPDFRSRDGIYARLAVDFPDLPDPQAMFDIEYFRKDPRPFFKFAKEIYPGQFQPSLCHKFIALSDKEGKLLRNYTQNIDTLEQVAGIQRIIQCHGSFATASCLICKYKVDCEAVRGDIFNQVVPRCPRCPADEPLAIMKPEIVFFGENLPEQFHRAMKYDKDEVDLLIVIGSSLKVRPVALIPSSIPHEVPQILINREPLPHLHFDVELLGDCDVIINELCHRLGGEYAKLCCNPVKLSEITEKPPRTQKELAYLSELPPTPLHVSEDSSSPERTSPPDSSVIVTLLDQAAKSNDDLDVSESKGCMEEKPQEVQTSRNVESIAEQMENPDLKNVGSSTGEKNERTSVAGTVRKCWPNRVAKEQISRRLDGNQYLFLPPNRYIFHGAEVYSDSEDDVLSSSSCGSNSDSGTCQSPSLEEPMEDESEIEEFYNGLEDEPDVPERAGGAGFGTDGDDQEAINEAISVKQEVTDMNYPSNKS

[2] = test system: NCI-H358 cells; test: Cellular ATP Assay (ATPLite 1Step normalized to AlamarBlue viability); assay type: cell-based; settings: for EC50 / IC50: Homo sapiens; for IC50: compounds that lowered intracellular ATP levels
Protocol: Cellular ATP levels are an indirect measurement of cellular metabolic rates and, by extension, mitochondrial function. […] The ATP assay is combined with a cellular viability assay so that cellular ATP levels can be normalized to viable cells. Cellular ATP levels were measured using the ATPLite 1Step Kit (PerkinElmer) and cellular viability was measured using the cell permeable dye, AlamarBlue™.
The Cellular ATP Assay is a multiplexed assay that measures both ATP levels and viability of a given cell sample. This assay is run in a 96-well Assay Plate and data are reported as the [ATP]/viability for each well in the Assay Plate.
The ATPLite 1 Step™ Kit is a single-step luminescent cell-based assay for detection of ATP. The kit contains lyophilized substrate mixture, comprised of D-luciferin and the firefly (Photinus pyralis) enzyme luciferase. Additionally, the kit contains a detergent-based reconstitution buffer that induces the lysis of cellular membranes. The luciferase in the assay mixture catalyzes a reaction between the free cellular ATP and D-luciferin to produce bioluminescence according to the schematic reaction outlined below. The amount of light produced is proportional to the cellular ATP concentration.
The AlamarBlue™ Assay is a single-step assay that utilizes a soluble, non-toxic, cell permeable dye that is added to cell growth media. This dye undergoes electron reduction in viable cells but not dead cells. The reduced dye product gives a fluorescent signal which can be monitored with a fluorescence plate reader (excitation 545 nm and emission 575 nm). The amount of fluorescence generated in a given well is proportional to the number of viable cells. The viability signal generated by this assay is used to normalize the ATP signal from the ATPLite 1Step™ assay results.
The material was dissolved in 100% vehicle (DMSO) to yield a final concentration of 10 mM (stock solution). The stock solution was serially diluted with 100% DMSO as described in SOP 7.10.
In this assay NCI-H358 cells (obtained from the American Tissue Culture Collection, ATCC) were seeded in 96 well microplates (10^4 cells/well). The NCI-H358 Growth Culture Media consists of RPMI 1640 Media supplemented with 10% FBS, […] streptomycin, and 100 units/mL penicillin. […] After 48 hours of compound treatment under cell growth conditions, plates were removed from incubator, and 15 μl of AlamarBlue™ dye was added to each well. Cell microplates were incubated with dye for 2 hours under growth conditions, and fluorescence was subsequently measured using a plate reader. Media containing AlamarBlue™ was removed, and plates were washed in 100 μl of PBS per well. This wash was removed, and 200 μl of 1×ATPLite 1Step reagent was added to each well. Luminescence was then measured using a plate reader. The ATP signal for each well, measured by the luminescence scan, was normalized to its corresponding cell viability value, measured by the fluorescence scan, to generate the average ATP level per viable cell unit (ATP/vCell). The ATP/vCell for each treatment was then normalized to the average vehicle ATP/vCell for its respective cell microplate, yielding the normalized ATP/vCell (norm. ATP/vCell). Finally, the norm. ATP/vCell for each unique treatment was averaged across plate replicates, generating the average norm. ATP/vCell.
Each of these ATP levels was normalized to the cell viability in the corresponding treatment well, generating the ATP/vCell value. Each ATP/vCell value was subsequently normalized to its average Vehicle ATP/vCell values for its respective cell microplate.
Data are represented as the normalized ATP/vCell (arbitrary units). […] These values represent an average of three plate replicates.
A number of compounds were screened for their affect on ATP levels in the assay as described in Example 5. […] NA means that the compound was not tested using the indicated assay.

[3] = SIRT1 activation, mass spectrometry assay, read-out: ED50 MS ASSAY
[4] = compounds that raised intracellular ATP levels, read-out: ED50 ATP ASSAY

SMILES | EC50 [1, 3] [µM] | FOLD ACT. MS [1] | EC50 [2, 4] [µM] | IC50 [2] [µM] | EC50 [1] [µM] | maximum increase in cellular ATP levels ([2]; 48 hours treatment, at 50 μM resveratrol, normalized ATP/vCell) [fold] | EC50 ([2]; 48 hours, 50% of the maximum increase in normalized ATP/vCell, read-out: EC50 ATP) [µM]
COc1ccc(NC(=O)c2cccc(-c3nc4ncccc4o3)c2)c(OC)c1 [Compound 100] | 5 to 50 | B (B (Fold Activation <250%)) | < 50 |  |  |  | 
COc1cc(C(=O)Nc2cccc(-c3nc4ccncc4s3)c2)cc(OC)c1OC [Compound 115] | 5 to 50 | A (A (Fold activation >250%)) | > 150 |  |  |  | 
CN(C)c1cccc(C(=O)Nc2ccccc2-c2nc3ncccc3o2)c1 [Compound 97] | < 5 | B (B (Fold Activation <250%)) | < 50 |  |  |  | 
COc1ccc(C(=O)Nc2cccc(-c3nc4cc(C)ccc4[nH]3)c2)cc1OC [Compound 117] | 5 to 50 | A (A (Fold activation >250%)) |  | 51 to 100 |  |  | 
COc1cc(C(=O)N2CCCN(c3nc4ccccc4o3)CC2)cc(OC)c1OC [Compound 91] | > 150 |  |  | < 50 |  |  | 
c1cc(Nc2nc3ccccc3o2)nc(-c2nc3ncccc3o2)c1 [Compound 105] | < 5 | B (B (Fold Activation <250%)) | < 50 |  |  |  | 
O=C(Nc1ccc2c(c1)OCO2)N1CCCN(c2nc3ccccc3o2)CC1 [Compound 90] |  |  | > 150 |  |  |  | 
O=C(Nc1ccc2c(c1)OCO2)Nc1cc(-c2nc3ccccc3o2)ccn1 [Compound 86, 1-Benzo[1,3]dioxol-5-yl-3-(4-benzoxazol-2-yl-pyridin-2-yl)-urea] |  |  | < 50 |  | > 150 |  | 
c1cc(Nc2nc3ccccc3o2)cc(-c2nc3ncccc3o2)c1 [Compound 93] | 5 to 50 | B (B (Fold Activation <250%)) | > 150 |  |  |  | 
COc1cccc(C(=O)Nc2cccc(-c3nc4ncccc4o3)c2)c1C [Compound 49] | 5 to 50 | B (B (Fold Activation <250%)) | < 50 |  |  |  | 
COc1cc(NC(=O)c2cccc(-c3nc4ncccc4o3)c2)cc(OC)c1OC [Compound 102, 3-(oxazolo[4,5-b]pyridin-2-yl)-N-(3,4,5-trimethoxyphenyl)benzamide] | 5 to 50 | A (A (Fold activation >250%)) | < 50 |  |  |  | 
Cc1nc(-c2cccc(NC(=O)c3cccc(N(C)C)c3)c2)cs1 [Compound 79] | > 150 |  | < 50 |  |  |  | 
Cc1nc(-c2cccc(Nc3nc4ccccc4o3)c2)cs1 [Compound 92] | 5 to 50 | B (B (Fold Activation <250%)) |  | 51 to 100 |  |  | 
CN(C)c1cccc(C(=O)N2CCCN(c3nc4ccccc4o3)CC2)c1 [Compound 89] | > 150 |  |  | < 50 |  |  | 
COc1cc(C(=O)Nc2cccc(-c3nc4cc(Cl)cc(Cl)c4o3)c2)cc(OC)c1OC [Compound 123] |  |  | > 150 |  |  |  | 
c1cc(Nc2nc3ccccc3s2)nc(-c2nc3ncccc3o2)c1 [Compound 104] | < 5 | B (B (Fold Activation <250%)) | < 50 |  |  |  | 
COc1cc(C(=O)Nc2cc(CO)cc(-c3nc4ccncc4s3)c2)cc(OC)c1OC [Compound 135] | < 5 | B (B (Fold Activation <250%)) | < 50 |  |  |  | 
COc1ccc(NC(=O)c2cccc(-c3nc4ncccc4o3)c2)cc1OC [Compound 101] | 5 to 50 | A (A (Fold activation >250%)) | 101 to 150 |  |  |  | 
Oc1ccc(C=Cc2cc(O)cc(O)c2)cc1 [resveratrol, reference compound] |  |  |  |  |  | 3.0 | 29
COc1cc(C(=O)Nc2ccccc2-c2nc3ncccc3o2)cc(OC)c1OC [Compound 106] | < 5 | B (B (Fold Activation <250%)) | < 50 |  |  |  | 
COc1cccc(OC)c1C(=O)Nc1cccc(-c2nc3ccccc3s2)c1 [Compound 120] |  |  | < 50 |  |  |  | 
O=C(Nc1cccc(-c2nc3ccncc3s2)c1)Nc1ccc2c(c1)OCO2 [Compound 99] | < 5 | A (A (Fold activation >250%)) | < 50 |  |  |  | 
